“And” between values parts separate entries of the source, which are not always exact repeats. Equal entries are not always repeated. Where two headings read alike, the source gives them in different places.
Experiments:
c-Src = target: T1, c-Src (Homo sapiens, UniProt P12931); assay: c-Src Kinase Assay (ELISA format); type: biochemical
T1 construct: purchased Upstate Biotechnologies
Description: Inhibitors of Src (partially purified preparation purchased from Upstate Biotechnologies) tyrosine kinase activity are analyzed in an ELISA format. […] Horseradish Peroxidase (HRP)-conjugated anti-phosphotyrosine is used to detect phosphorylated peptide via a color reaction. Conditions recommended by the manufacturer are employed.
Reaction conditions: Five microliter aliquots of each compound prepared fresh at the time of the assay are added as a solution in 10mM HEPES pH 7.5, 10% DMSO to the reaction well. Thirty-five microliters of reaction mix containing Src, buffer and peptide/bovine serum albumin mix are added to the compound wells and incubated at 30°C for 10 minutes (reaction buffer: 50mM TrisHCl pH 7.5, 10mM MgCl2, 0.1mM EGTA, 0.5mM Na3VO4). The reaction is started by addition of 10 microliters of ATP, incubated at 30°C for 1 hour, and stopped by addition of 20 microliters of 0.5M EDTA. The reaction mixture with the phosphorylated peptide is then transferred to a streptavidin-coated microtiter plate (provided in the kit) and allowed to bind for 20 minutes. Unbound peptide and reaction mixture is decanted and the plate is washed with PBS six times. HRP-conjugated phosphotyrosine antibody supplied in the kit is incubated with the plate for one hour, then decanted. The plate is again washed with PBS six times.
Activity is determined as % inhibition as calculated by the formula: (1 - Abs/Abs(max)) x 100 = % inhibition.

[1] = system: Rat2 fibroblasts stably transformed with a plasmid containing a CMV promotor controlled v-Src/Hu c-Src fusion gene; assay: Anchorage Independent Src-transformed Fibroblast Proliferation Assay
[2] = Rattus norvegicus, Rat2, 120 h, read-out: anch-indep src-tx fib IC50, suspension growth, MTS on Day 5
[3] = read-out: anch-indep src-tx fib IC50, suspension growth, MTS on Day 5

Compound	IC50 (c-Src)	IC50 [1, 2]	inhibition at 0.01 µM (c-Src; at 10 nM)	IC50 [1, 3]
COc1cc(Nc2c(C#N)cnc3cc(-c4ccc5ccccc5c4)ccc23)c(Cl)cc1Cl [Example 117, 4-(2,4-Dichloro-5-methoxyanilino)-7-(2-naphthyl)-3-quinolinecarbonitrile]	0.21 µM and 0.16 µM and 0.12 µM	6.9 µM	–	–
COc1cc(Nc2c(C#N)cnc3cc(-c4csc(CN5CCC(O)CC5)c4)ccc23)c(Cl)cc1Cl [Example 192, 4-(2,4-dichloro-5-methoxyanilino)-7-{5-[(4-hydroxy-1-piperidnyl)methyl]-3-thienyl}-3-quinolinecarbonitrile]	0.0021 µM	0.17 µM	–	–
COc1cc(Nc2c(C#N)cnc3cc(C#CCO)ccc23)c(Cl)cc1Cl [Example 143, 4-(2,4-dichloro-5-methoxyanilino)-7-(3-hydroxy-1-propynyl)-3-quinolinecarbonitrile]	0.026 µM	> 10 µM	–	–
CCN1CCN(Cc2cc(-c3ccc4c(Nc5cc(OC)c(Cl)cc5Cl)c(C#N)cnc4c3)cs2)CC1 [Example 19, 4-(2,4-Dichloro-5-methoxyanilino)-7-{5-[(4-ethyl-1-piperazinyl)methyl]-3-thienyl}-3-quinolinecarbonitrile]	0.002 µM and 0.0017 µM	0.16 µM	–	–
COc1cc(Nc2c(C#N)cnc3cc(-c4ccc(CO)n4C)ccc23)c(Cl)cc1Cl [Example 162, 4-(2,4-dichloro-5-methoxyanilino)-7-[5-(hydroxymethyl)-1-methyl-1H-pyrrol-2-yl]-3-quinolinecarbonitrile]	0.076 µM	> 10 µM	–	–
COc1cc(Nc2c(C#N)cnc3cc(-c4ccc(CN5CCCC(C(=O)O)C5)cc4)ccc23)c(Cl)cc1Cl (stereo not drawn) [Example 149, 1-(4-{3-cyano-4-[(2,4-dichloro-5-methoxyphenyl)amino]-7-quinolinyl}benzyl)-3-piperidinecarboxylic acid]	0.00067 µM	2.5 µM	–	–
COc1cc(Nc2c(C#N)cnc3cc(-c4ccc(CN5CCOCC5)cc4)ccc23)c(Cl)cc1C [Example 234, 4-(2-chloro-5-methoxy-4-methylanilino)-7-[4-(4-morpholinylmethyl)phenyl]-3-quinolinecarbonitrile]	0.0072 µM	0.72 µM	–	–
COc1cc(Nc2c(C#N)cnc3cc(-c4ccc(-c5ccccc5)cc4)ccc23)c(Cl)cc1Cl [Example 165, 7-[1,1'-biphenyl]-4-yl-4-(2,4-dichloro-5-methoxyanilino)-3-quinolinecarbonitrile]	–	> 10 µM	28%	–
COc1cc(Nc2c(C#N)cnc3cc(-c4ccc(CNCCS(C)(=O)=O)n4C)ccc23)c(Cl)cc1Cl [Example 73, 4-(2,4-Dichloro-5-methoxyanilino)-7-[1-methyl-5-({[2-(methylsulfonyl)ethyl]amino}methyl)-1H-pyrrol-2-yl]-3-quinolinecarbonitrile]	0.058 µM and 0.075 µM	> 10 µM	–	–
COc1cc(Nc2c(C#N)cnc3cc(-c4ccc(-c5nnn[nH]5)cc4)ccc23)c(Cl)cc1Cl [Example 105]	0.01 µM	> 10 µM	–	5.9 µM
N#Cc1cnc2cc(-c3csc(CN4CCOCC4)c3)ccc2c1Nc1ccc(Cl)cc1Cl [Example 25, 4-(2,4-Dichloroanilino)-7-[5-(4-morpholinylmethyl)-3-thienyl]-3-quinolinecarbonitrile]	0.0036 µM and 0.006 µM and 0.0049 µM	1.3 µM	–	0.93 µM
COc1cc(Nc2c(C#N)cnc3cc(-c4ccc(CNCCS(C)(=O)=O)cc4)ccc23)c(Cl)cc1Cl [Example 88, 4-(2,4-Dichloro-5-methoxyanilino)-7-[4-({[2-(methylsulfonyl)ethyl]amino}methyl)phenyl]-3-quinolinecarbonitrile]	0.003 µM	0.85 µM	–	–
COc1cc(Nc2c(C#N)cnc3cc(-c4csc(CN5CCOCC5)c4)c(OC)cc23)c(Cl)cc1Cl [Example 36, 4-(2,4-Dichloro-5-methoxyanilino)-6-methoxy-7-[5-(4-morpholinylmethyl)-3-thienyl]-3-quinolinecarbonitrile]	0.0019 µM	0.16 µM	–	0.2 µM
COc1cc(Nc2c(C#N)cnc3cc(-c4ccc(CN5CCCCC5)s4)ccc23)c(Cl)cc1Cl [Example 78, 4-(2,4-Dichloro-5-methoxyanilino)-7-[5-(1-piperidinylmethyl)-2-thienyl]-3-quinolinecarbonitrile]	0.0013 µM	0.14 µM	–	–
COc1cc(Nc2c(C#N)cnc3cc(-c4ccsc4CN4CCOCC4)ccc23)c(Cl)cc1Cl [Example 66, 4-(2.4-Dichloro-5-methoxyanilino)-7-[2-(4-morpholinylmethyl)-3-thienyl]-3-quinolinecarbonitrile]	0.38 µM	> 10 µM	–	–
COc1cc(Nc2c(C#N)cnc3cc(-c4cccc(NC(C)=O)c4)ccc23)c(Cl)cc1Cl [Example 118, N-{3-[3-Cyano-4-(2,4-dichloro-5-methoxyanilino)-7-quinolinyl]phenyl}acetamide]	0.16 µM	3 µM	–	–

Compound	IC50 (c-Src)	IC50 [1, 2]	inhibition at 0.01 µM (c-Src; at 10 nM)	IC50 [1, 3]
COc1ccc(-c2ccc3c(Nc4cc(OC)c(Cl)cc4Cl)c(C#N)cnc3c2)cc1 [Example 194, 4-(2,4-dichloro-5-methoxyanilino)-7-(4-methoxyphenyl)-3-quinolinecarbonitrile]	0.012 µM	> 10 µM	–	–
COc1cc(Nc2c(C#N)cnc3cc(-c4ccc(CN5CCN(CCO)CC5)o4)ccc23)c(Cl)cc1Cl [Example 75, 4-(2,4-Dichloro-5-methoxyanilino)-7-(5-{[4-(2-hydroxyethyl)-1-piperazinyl]methyl}-2-furyl)-3-quinolinecarbonitrile]	0.024 µM	0.29 µM	–	–
COc1cc(Nc2c(C#N)cnc3cc(-c4ccc(CN5CCOCC5)cc4)ccc23)c(Cl)cc1F [Example 235, 4-(2-chloro-4-fluoro-5-methoxyanilino)-7-[4-(4-morpholinylmethyl)phenyl]-3-quinolinecarbonitrile]	0.0041 µM	0.79 µM	–	–
COc1cc(Nc2c(C#N)cnc3cc(-c4ccc(CN5CCC(CC(=O)O)CC5)cc4)ccc23)c(Cl)cc1Cl [Example 100, (1-{4-[3-Cyano-4-(2,4-dichloro-5-methoxyanilino)-7-quinolinyl]benzyl}-4-piperidinyl)acetic acid]	0.00057 µM	0.34 µM	–	0.4 µM
COc1cc(Nc2c(C#N)cnc3cc(-c4cc5ccccc5s4)ccc23)c(Cl)cc1Cl [Example 120]	0.17 µM	–	–	> 10 µM
COc1cc(Nc2c(C#N)cnc3cc(-c4ccc(CCl)cc4)ccc23)c(Cl)cc1Cl [Example 102, 7-[4-(Chloromethyl)phenyl]-4-(2,4-dichloro-5-methoxyanilino)-3-quinolinecarbonitrile]	0.018 µM	7.5 µM	–	–
4-(2.4-Dichloro-5-methoxyanilino)-7-(3-formyl)-3-guinolinecarbonitrile [Example 112]	0.036 µM	–	–	7.3 µM
4-[(2,4-Dichloro-5-methoxyphenyl)amino]-7-[4-(4-morpholinyl)phenyl]-3-quinolinecarbonitrile [Example 128]	0.0032 µM	–	–	0.64 µM
COc1cc(Nc2c(C#N)cnc3cc(-c4ccc(C5OCCO5)o4)ccc23)c(Cl)cc1Cl [Example 5, 4-(2,4-Dichloro-5-methoxyanilino)-7-[5-(1,3-dioxolan-2-yl)-2-furyl]-3-quinolinecarbonitrile]	0.0043 µM	0.2 µM	–	–
CCN1CCN(c2ccc(-c3ccc4c(Nc5cc(OC)c(Cl)cc5Cl)c(C#N)cnc4c3)nc2)CC1 [Example 179, 4-[(2,4-dichloro-5-methoxyphenyl)amino]-7-[5-(4-ethyl-1-piperazinyl)-2-pyridinyl]-3-quinolinecarbonitrile]	0.00023 µM	0.27 µM	–	–
COc1cc(Nc2c(C#N)cnc3cc(-c4cccc(N)c4)ccc23)c(Cl)cc1Cl [Example 174, 7-(3-aminophenyl)-4-(2,4-dichloro-5-methoxyanilino)-3-quinolinecarbonitrile]	0.095 µM	5.6 µM	–	–
COc1cc(Nc2c(C#N)cnc3cc(-c4csc(CN5CCOCC5)c4)ccc23)c(Cl)cc1Cl [Example 24, 4-(2,4-Dichloro-5-methoxyanilino)-7-[5-(4-morpholinylmethyl)-3-thienyl]-3-quinolinecarbonitrile]	0.0021 µM and 0.0037 µM	–	–	0.18 µM
COc1cc(Nc2c(C#N)cnc3cc(-c4cc5ccccc5o4)ccc23)c(Cl)cc1Cl [Example 119, 7-(1-Benzofuran-2-yl)-4-(2,4-dichloro-5-methoxyanilino)-3-quinolinecarbonitrile]	0.13 µM	> 10 µM	–	–
COc1cc(Nc2c(C#N)cnc3cc(-c4ccc(CN(CCO)CCO)o4)ccc23)c(Cl)cc1Cl [Example 76, 7-(5-{[Bis(2-hydroxyethyl)amino]methyl}-2-furyl)-4-(2,4-dichloro-5-methoxyanilino)-3-quinolinecarbonitrile]	0.022 µM	1.1 µM	–	–
COc1cc(Nc2c(C#N)cnc3cc(-c4ccc(CNCCS(=O)(=O)c5ccccc5)n4C)ccc23)c(Cl)cc1Cl [Example 72, 4-(2,4-Dichloro-5-methoxyanilino)-7-[1-methyl-5-({[2-(phenylsulfonyl)ethyl]amino}methyl)-1H-pyrrol-2-yl]-3-quinolinecarbonitrile]	0.078 µM	> 10 µM	–	–

From patent EP1268431B1 (Wyeth, priority 2000, dated 2001)
